In PMC3522777 (Nature chemical biology, 2012):

Legend:
[1] = biological target: T1, dihydroceramide desaturase-1 (DES1) (Gallus gallus, UniProt Q5F3C1); format: biochemical
T1 sequence (Q5F3C1 1-323): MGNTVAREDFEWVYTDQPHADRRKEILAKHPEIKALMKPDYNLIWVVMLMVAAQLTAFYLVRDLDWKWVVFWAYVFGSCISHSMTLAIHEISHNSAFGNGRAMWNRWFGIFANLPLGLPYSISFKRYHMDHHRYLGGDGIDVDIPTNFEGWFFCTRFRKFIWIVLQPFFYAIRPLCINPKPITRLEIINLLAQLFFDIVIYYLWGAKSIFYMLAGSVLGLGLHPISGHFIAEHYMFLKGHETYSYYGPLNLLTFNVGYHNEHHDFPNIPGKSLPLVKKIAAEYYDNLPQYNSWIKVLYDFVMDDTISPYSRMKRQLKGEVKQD

DES1 = DES1 (Homo sapiens, UniProt O15121); assay: retinol isomerase assay in homogenates of transfected […] cells, HPLC; format: cell-based
Sequence of DES1 (O15121 2-323): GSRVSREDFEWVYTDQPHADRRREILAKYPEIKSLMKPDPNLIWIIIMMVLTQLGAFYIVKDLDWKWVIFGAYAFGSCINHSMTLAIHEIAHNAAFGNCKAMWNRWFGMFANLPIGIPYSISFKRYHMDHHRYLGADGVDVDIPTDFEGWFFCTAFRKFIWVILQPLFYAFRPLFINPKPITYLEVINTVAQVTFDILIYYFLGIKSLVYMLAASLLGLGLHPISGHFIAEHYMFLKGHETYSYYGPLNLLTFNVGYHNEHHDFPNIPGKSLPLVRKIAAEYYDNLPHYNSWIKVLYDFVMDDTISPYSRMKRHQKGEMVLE

[2] = biological target: T1, dihydroceramide desaturase-1 (DES1); assay: retinol isomerase assay with purified GST-DES1, HPLC of products; format: biochemical

Compound | Ki [1] [µM] | retinol isomerase assay in homogenates of transfected 293T cells, HPLC (DES1) | retinol isomerase assay with purified GST-DES1, HPLC of products [2]
CC1=C(/C=C/C(C)=C/C=C/C(C)=C/C(=O)Nc2ccc(O)cc2)C(C)(C)CCC1 [4-HPR, fenretinide] | 8.5 |  | 
CC1=C(/C=C/C(C)=C/C=C/C(C)=C/CO)C(C)(C)CCC1 [all-trans-ROL, all-trans-retinol] |  | The rate of 11-cis-ROL synthesis was dramatically higher for DES1 versus the other membrane desaturases | Purified GST-DES1 exhibited dramatically higher isomerase-2 activities
